According to ChEMBL document CHEMBL1141676, “A three-dimensional pharmacophore model for dipeptidyl peptidase IV inhibitors” (Eur J Med Chem, 2008):

Target: Dipeptidyl peptidase 4 (Homo sapiens, UniProt P27487)
Sequence (P27487 whole entry): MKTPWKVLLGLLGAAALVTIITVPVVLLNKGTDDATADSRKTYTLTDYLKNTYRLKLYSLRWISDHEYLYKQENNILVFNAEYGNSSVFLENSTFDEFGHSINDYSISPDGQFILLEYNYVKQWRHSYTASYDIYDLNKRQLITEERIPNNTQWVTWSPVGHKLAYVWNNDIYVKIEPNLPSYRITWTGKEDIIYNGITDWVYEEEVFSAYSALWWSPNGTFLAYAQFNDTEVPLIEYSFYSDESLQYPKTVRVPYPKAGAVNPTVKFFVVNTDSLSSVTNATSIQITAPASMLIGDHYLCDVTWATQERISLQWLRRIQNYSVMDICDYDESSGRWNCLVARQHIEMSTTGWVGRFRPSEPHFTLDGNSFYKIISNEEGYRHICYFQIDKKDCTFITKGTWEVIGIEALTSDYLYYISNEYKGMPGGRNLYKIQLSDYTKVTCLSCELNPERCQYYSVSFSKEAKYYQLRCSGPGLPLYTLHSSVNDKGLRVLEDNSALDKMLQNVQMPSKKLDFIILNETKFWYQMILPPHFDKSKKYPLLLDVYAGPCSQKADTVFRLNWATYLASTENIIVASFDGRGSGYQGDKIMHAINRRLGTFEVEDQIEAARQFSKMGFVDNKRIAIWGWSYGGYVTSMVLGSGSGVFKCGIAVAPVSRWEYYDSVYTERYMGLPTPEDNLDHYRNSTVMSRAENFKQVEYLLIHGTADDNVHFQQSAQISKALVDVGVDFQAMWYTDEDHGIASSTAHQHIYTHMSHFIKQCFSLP
Description: Inhibition of human DPP4 expressed in baculovirus system

IC50 [µM]	SMILES
390	N#C[C@@H]1CCCN1C(=O)CN1CCc2ccccc2C1
230	N[C@H](C(=O)N1CCc2ccccc2C1)C1CCCCC1
